Measurements published in the NIST ThermoML archive (doi:10.1021/je300152t).
± gives the expanded uncertainty stated by the source.

Key:
[1] = Molar enthalpy of transition or fusion; settings: Crystal; DSC
[2] = Crystal; DTA

Compound	Molar enthalpy of transition or fusion [1] [kcal/mol]	Normal melting temperature [2] [°C]
CC(=O)Nc1ccc(C)cc1 [1-acetamido-4-methylbenzene]	7.03 ± 0.167	148.2 ± 0.7
CCOc1cccc(NC(C)=O)c1 [N-(3-ethoxyphenyl)acetamide]	6.91 ± 0.239	95 ± 0.9
CCOc1ccc(NC(C)=O)cc1 [N-(4-ethoxyphenyl)ethanamide]	7.65 ± 0.167	134 ± 1
COc1ccc(NC(C)=O)cc1 [N-(4-methoxyphenyl)ethanamide]	6.07 ± 0.191	125.1 ± 2.4
O=C(Nc1ccccc1)c1ccccc1 [N-phenylbenzamide]	7.46 ± 0.359	162 ± 1
CC(=O)Nc1ccccc1 [N-phenylethanamide]	5.28 ± 0.12	113.8 ± 0.4
